Here are results for 3 molecules from ChEMBL document CHEMBL6096699, “Tröger's Base as a Potential Bridge to Type-I Photosensitizers: Mechanism and Antitumor Applications” (J Med Chem, 2025).

Calls of active or inactive are those of the source. No cut-off for these calls is given here.

A short description of series [1]: Induction of type-1 ROS generation in tetrahydrofuran at 0.5 uM followed by LED white light irradiation at 1.8 mWcm/2 for 300 sec by DCFH staining based analysis. Type of series: functional.
A short description of series [2]: Induction of type-1 ROS generation in methanol assessed as generation of O2 at 0.5 uM followed by Xe lamp irradiation for 5 mins by DCFH staining based analysis. The format is functional.
Series [3] relates to A549. Kind of series: Inhibition of cell migration in human A549 cells assessed as appearance of blurred cells at 0.75 uM preincubated for 12 hrs followed by incubation under dark condition and measured after 48 hrs by wound healing assay. The format is functional, cell-based. As to conditions: time 60.0 hrs.
For series [4], the system named is A549. Kind of series: Phototoxicity against human A549 cells assessed as reduction in cell proliferation at 0.156 to 10 uM irradiated with LED light at 1.8 mWcm/2 for 2 hrs and measured after 24 hrs under normoxia condition by MTT assay. Type of series: functional, cell-based. The conditions noted are these: dose 0.156-10 µM, time 26.0 hrs. For orientation: Tetrazolium dyes change colour on reduction, which living cells bring about.

Series [5] deals with A549. Kind of series: Inhibition of cell migration in human A549 cells at 0.75 uM preincubated for 12 hrs followed by incubation under dark condition and measured after 48 hrs by wound healing assay. As to conditions: time 60.0 hrs. Type of series: functional, cell-based.
Series [6] deals with A549. Kind of series: Inhibition of cell migration in human A549 cells assessed as appearance of loose cells at 0.75 uM preincubated for 12 hrs followed by LED light irradiation 1.8 mW cm/2 for 2 hrs and measured after 48 hrs by wound healing assay. Type of series: functional, cell-based. The conditions noted are these: time 62.0 hrs.
In series [7] the test system is A549. The series is described as follows: Inhibition of cell migration in human A549 cells assessed as appearance of blurred cells at 0.75 uM preincubated for 12 hrs followed by LED light irradiation 1.8 mW cm/2 for 2 hrs and measured after 48 hrs by wound healing assay. Type of series: functional, cell-based. The conditions noted are these: time 62.0 hrs.
Series [8] in a line: Dark toxicity in human HBE cells assessed as cell viability incubated for 24 hrs in dark by MTT assay. Type of series: cell-based.
Series [9] can be described thus: Developmental toxicity in wild type AB zebrafish assessed as effect on morphological abnormalities at 1.57 to 50 uM incubated for 72 hrs under dark condition. More on the design: species or system Danio rerio. The conditions noted are these: in vivo, dose 1.57-50 µM.
Series [10] relates to A549. Kind of series: Inhibition of cell migration in human A549 cells at 0.75 uM preincubated for 12 hrs followed by LED light irradiation 1.8 mW cm/2 for 2 hrs and measured after 48 hrs by wound healing assay. The format is functional, cell-based. The conditions noted are these: time 62.0 hrs.
Series [11] has as its system A549. Kind of series: Induction of intracellular ROS generation in human A549 cells by measuring red fluorescence at 0.4 to 1.2 uM incubated for 24 hrs under dark condition by DHE based fluorescence microscopy analysis. The conditions noted are these: dose 0.4-1.2 µM. The format is functional, cell-based.
Series [12] has as its system A549. Kind of series: Induction of intracellular ROS generation in human A549 cells by measuring red fluorescence at 0.4 to 1.2 uM incubated for 24 hrs in presence of LED light irradiation at 1.8 mW cm/2 by DHE based fluorescence microscopy analysis. Type of series: functional, cell-based. The conditions noted are these: dose 0.4-1.2 µM.
A short description of series [13]: Developmental toxicity in wild type AB zebrafish assessed as effect on morphological abnormalities at 1.57 to 50 uM incubated for 72 hrs followed by LED light irradiation at 1.8 mW cm/2. More on the design: species or system Danio rerio. As to conditions: in vivo, dose 1.57-50 µM.
In series [14] the test system is A549. The series is described as follows: Inhibition of cell migration in human A549 cells assessed as appearance of loose cells at 0.75 uM preincubated for 12 hrs followed by incubation under dark condition and measured after 48 hrs by wound healing assay. The format is functional, cell-based. The conditions noted are these: time 60.0 hrs.
Series [15] can be described thus: Induction of type-1 ROS generation in tetrahydrofuran assessed as fold increase in DHR123 fluorescence intensity at 0.5 uM followed by LED white light irradiation at 1.8 mWcm/2 for 300 sec by DCFH staining based analysis. Type of series: functional.
The subject of a further series is MCF7. Kind of series: Phototoxicity against human MCF7 cells assessed as reduction in cell proliferation at 0.156 to 10 uM irradiated with LED light at 1.8 mWcm/2 for 2 hrs and measured after 24 hrs under normoxia condition by MTT assay. The format is functional, cell-based. The conditions noted are these: dose 0.156-10 µM, time 26.0 hrs.
A further series relates to MDA-MB-231. The series is described as follows: Phototoxicity against human MDA-MB-231 cells assessed as reduction in cell proliferation at 0.156 to 10 uM irradiated with LED light at 1.8 mWcm/2 for 2 hrs and measured after 24 hrs under normoxia condition by MTT assay. The format is functional, cell-based. As to conditions: dose 0.156-10 µM, time 26.0 hrs.
Another series concerns HepG2. Kind of series: Phototoxicity against human HepG2 cells assessed as reduction in cell proliferation at 0.156 to 10 uM irradiated with LED light at 1.8 mWcm/2 for 2 hrs and measured after 24 hrs under normoxia condition by MTT assay. The format is functional, cell-based. As to conditions: dose 0.156-10 µM, time 26.0 hrs.
The nature of series [16]: Photophysical property of the compound assessed as fluorescence quantum yield. Type of series: physicochemical.
Series [17] can be described thus: Induction of type-1 ROS generation in methanol assessed as generation of OH at 0.5 uM followed by Xe lamp irradiation for 5 mins by DCFH staining based analysis. The format is functional.
A short description of series [18]: Induction of type-1 ROS generation in tetrahydrofuran assessed as increase in singlet oxygen production by measuring ABDA absorption peak at 0.5 uM followed by LED white light irradiation at 1.8 mWcm/2 for 300 sec by DCFH staining based analysis. Type of series: functional.

As to `CCN(CC)c1ccc2cc(C(=O)/C=C/c3ccc4c(c3)CN3CN4Cc4cc(C=O)ccc43)c(=O)oc2c1`, the result (in series [1]; in [2]; in the series on A549 [4]; with A549 [12]; in the series with MCF7; in the series on MDA-MB-231) was Active. The result (in the series with HepG2; in series [17]) was Active. Also, the inhibition result in the series with A549 [3], in the series on A549 [5], in the series on A549 [6], in the series on A549 [7], in the series with A549 [10] and with A549 [14] was “Active” in each case. For the same molecule, the Activity entry in series [8] was “Toxic”; in series [9], “Non-toxic”; in series [13], “Non-toxic”. Also, the result in the series on A549 [11] was inactive. Also, the fold change (FC) in [15] amounted to 24.1. Further, the Fluorescence quantum yield in [16] worked out at 0.18.
On to `CN(C)c1ccc2cc(C(=O)/C=C/c3ccc4c(c3)CN3CN4Cc4cc(Br)ccc43)c(=O)oc2c1`, for which the outcome in [1], in series [2] and in series [17] was Active. For the same molecule, the Activity entry in [8] was “Toxic”. Also, the fold change (FC) in series [15] stood at 25.5. For the same molecule, the Fluorescence quantum yield in series [16] is on record as 0.16.
For `CCN(CC)c1ccc2cc(C(=O)/C=C/c3cc4c(cc3OC)N3Cc5cc(Br)c(OC)cc5N(C4)C3)c(=O)oc2c1`, the outcome in series [1] was Active. The outcome in series [18] was inactive. For the same molecule, in series [8], the Activity result is reported as “Toxic”. Moreover, the fold change (FC) in series [15] was 17.4. The Fluorescence quantum yield in series [16] amounted to 0.16.
